Source: patent publication US9969758B2, “Antimicrobial compounds” (BIOMERIEUX, priority 2014, dated 2018)
In brackets after ≈: the same amount, converted by molar mass.

Experiments:
Assay in all cases: MIC by agar dilution, single strains
Assay type in all cases: cell-based
[1] = system: Enterobacter cloacae NCTC 11936; conditions: NCTC11936, 22 hours of incubation, read-out: Minimum inhibitory concentration (MIC)
Experimental: (§1) Determining the minimum inhibitory concentrations (MIC). All the MICs were determined using an agar dilution method. This required use of a medium without a defined antagonist (peptone-free), prepared as described previously with the inclusion of 2% horse blood lysed with saponin, 25.0 μg/mL of NAD and 25.0 μg/mL of hemin [17]. The compounds tested were dissolved in sterile deionised water and incorporated into the agar medium in a concentration range of 0.0031 to 8.0 μg/mL (0.016 to 32 μg/mL for gram-positive bacteria). All the isolates were prepared at a density equivalent to 0.5 McFarland units in sterile deionised water using a densitometer (approximately 1.5×10^8 CFU/mL), and then diluted to 1 for 15. An aliquot of 1 μL of each diluted suspension was then placed onto plates with a multispot inoculator to give the final recommended inoculation of 10 000 CFU/spot. The MICs of fosfomycin were determined by the same method, except that the IsoSensitest medium (Oxoid, Basingstoke, United Kingdom) was used, plus 25.0 μg/mL of glucose-6-phosphate (Sigma, Poole, United Kingdom) and an extended range of fosfomycin concentrations. All the dishes (including the antimicrobial-free controls) were incubated for 22 hours at 37° C. All the tests were performed on at least two independent replicates in order to examine the reproducibility.

[2] = system: Escherichia coli NCTC 12241; conditions: NCTC12241, 22 hours of incubation, read-out: Minimum inhibitory concentration (MIC)
Experimental: as §1

[3] = system: Pseudomonas aeruginosa NCTC 10662; conditions: NCTC10662, 22 hours of incubation, read-out: Minimum inhibitory concentration (MIC)
Experimental: as §1

[4] = system: Salmonella typhimurium NCTC 74; conditions: Salmonella enterica, 22 hours of incubation, read-out: Minimum inhibitory concentration (MIC)
Experimental: as §1

[5] = system: Staphylococci epidermidis NCTC 11047; conditions: 22 hours of incubation, read-out: Minimum inhibitory concentration (MIC)
Experimental: as §1

[6] = system: Serratia marcescens NCTC 10211; conditions: NCTC10211, 22 hours of incubation, read-out: Minimum inhibitory concentration (MIC)
Experimental: as §1

[7] = system: Escherichia coli NCTC 10418; conditions: NCTC10418, 22 hours of incubation, read-out: Minimum inhibitory concentration (MIC)
Experimental: as §1

[8] = system: Klebsiella pneumoniae NCTC 9528; conditions: NCTC9528, 22 hours of incubation, read-out: Minimum inhibitory concentration (MIC)
Experimental: as §1

[9] = system: Enterococcus faecium NCTC 7171; conditions: NCTC7171, 22 hours of incubation, read-out: Minimum inhibitory concentration (MIC)
Experimental: as §1

[10] = system: Enterococcus faecalis NCTC 775; conditions: NCTC775, 22 hours of incubation, read-out: Minimum inhibitory concentration (MIC)
Experimental: as §1

[11] = system: Acinetobacter baumannii ATCC 19606; conditions: ATCC19606, 22 hours of incubation, read-out: Minimum inhibitory concentration (MIC)
Experimental: as §1

[12] = system: Burkholderia cepacia ATCC 25416; conditions: ATCC25416, 22 hours of incubation, read-out: Minimum inhibitory concentration (MIC)
Experimental: as §1

[13] = system: Staphylococcus aureus NCTC 11939 (SARM); conditions: NCTC11939, 22 hours of incubation, read-out: Minimum inhibitory concentration (MIC)
Experimental: as §1

[14] = system: Salmonella enteritidis NCTC 6676; conditions: Salmonella enterica, 22 hours of incubation, read-out: Minimum inhibitory concentration (MIC)
Experimental: as §1

[15] = system: Yersinia enterocolitica NCTC 11176; conditions: NCTC11176, 22 hours of incubation, read-out: Minimum inhibitory concentration (MIC)
Experimental: as §1

[16] = system: Providencia rettgeri NCTC 7475; conditions: NCTC7475, 22 hours of incubation, read-out: Minimum inhibitory concentration (MIC)
Experimental: as §1

[17] = system: Listeria monocytogenes NCTC 11994; conditions: NCTC11994, 22 hours of incubation, read-out: Minimum inhibitory concentration (MIC)
Experimental: as §1

[18] = system: Staphylococcus aureus NCTC 6571; conditions: NCTC6571, 22 hours of incubation, read-out: Minimum inhibitory concentration (MIC)
Experimental: as §1

MIC [1] [µg/mL] | MIC [2] [µg/mL] | MIC [3] [µg/mL] | MIC [4] [µg/mL] | MIC [5] [µg/mL] | MIC [6] [µg/mL] | MIC [7] [µg/mL] | MIC [8] [µg/mL] | MIC [9] [µg/mL] | MIC [10] [µg/mL] | MIC [11] [µg/mL] | MIC [12] [µg/mL] | MIC [13] [µg/mL] | MIC [14] [µg/mL] | MIC [15] [µg/mL] | MIC [16] [µg/mL] | MIC [17] [µg/mL] | MIC [18] [µg/mL] | Structure (SMILES)
4 (≈ 12.1 µM) | 0.5 (≈ 1.52 µM) | > 8 | > 8 | 2 (≈ 6.07 µM) | 0.5 (≈ 1.52 µM) | 1 (≈ 3.03 µM) | 0.5 (≈ 1.52 µM) | 1 (≈ 3.03 µM) | 0.063 (≈ 0.191 µM) | > 8 | > 8 | > 8 | > 8 | 0.25 (≈ 0.758 µM) | > 8 | > 8 | 4 (≈ 12.1 µM) | CCC[C@H](N)C(=O)N[C@@H](CCl)C(=O)NC(C)P(=O)(O)O (stereo partly drawn) [compound G, L-Norvalinyl-β-chloro-L-alanyl-D/L-fosfalin]
4 (≈ 11.1 µM) | 0.5 (≈ 1.38 µM) | > 8 | > 8 | 1 (≈ 2.76 µM) | 0.25 (≈ 0.691 µM) | 0.5 (≈ 1.38 µM) | 0.5 (≈ 1.38 µM) | 1 (≈ 2.76 µM) | 0.032 (≈ 0.0884 µM) | > 8 | > 8 | > 8 | > 8 | 0.25 (≈ 0.691 µM) | > 8 | > 8 | 2 (≈ 5.53 µM) | CSCC[C@H](N)C(=O)N[C@@H](CCl)C(=O)NC(C)P(=O)(O)O (stereo partly drawn) [compound H, L-methionyl-β-chloro-L-alanyl-D/L-fosfalin]
